According to patent publication US20140135220A1, “Methods for post emergent weed control with Pyroxasulfone and Lactofen” (Valent U.S.A., Corporation, priority 2012, published 2014):

Columns and labels:
[1] = system: Palmer Amaranth; experiment: Example 1: post emergence treatments on field plots with Palmer Amaranth; format: in vivo; settings: COC 1% v/v
Text: In order to determine the efficacy of combinations of pyroxasulfone and lactofen, numerous treatments were applied to plots in an area with abundant Palmer Amaranth growth. Treatments were applied to Palmer that were between 1 and 2 inches tall with a water volume of 20 gallons per acre applied at 35 PSI with a ground speed of 3 MPH. Treatments were repeated 10 days after the first application on another set of plots with Palmer 3 to 12 inches tall with a water volume of 20 gallons per acre applied at 35 PSI with a ground speed of 3 MPH.
The number of living Palmer Amaranth plants was evaluated at 7, 18, 24, and 38 days following the first treatment and 8, 14, and 28 days following the second treatment. Effect of Pyroxasulfone and Lactofen Treatments on Palmer Amaranth.”

[2] = system: Palmer Amaranth; experiment: Example 2: post emergence treatments on soybean plots, control of Palmer Amaranth; format: in vivo; parameters: scale not given here
Text: (§1) In order to determine the efficacy of combinations of pyroxasulfone and lactofen, numerous treatments were applied to plots in an area with abundant Palmer Amaranth and Ivyleaf Morning Glory growth. Soybeans were planted approximately 22 days before treatment. Treatments were applied with a backpack sprayer with a size 6 nozzle at a pace of 3 miles per hour during dry conditions. Each treatment was done in triplicate. Treatments were applied with a water volume of 20 gallons per acre applied at 40 PSI with a ground speed of 3 MPH. At the time of treatment, Palmer Amaranth plants were approximately 2 to 6 inches tall, and Ivyleaf Morning Glory was approximately 3 to 6 inches tall. Effect of Pyroxasulfone and Lactofen Treatments on Palmer Amaranth” and “Table 3. Effect of Pyroxasulfone and Lactofen Treatments on Ivyleaf Morning Glory.”

[3] = system: Ivyleaf Morning Glory; experiment: Example 2: post emergence treatments on soybean plots, control of Ivyleaf Morning Glory; format: in vivo; parameters: scale not given here
Text: as §1

[4] = system: Soybeans; experiment: Example 2: phytotoxicity of the treatments on soybeans; settings: soybean, in vivo, 28 days after treatment
Text: as §1
Applicants also evaluated the phototoxicity of the treatments on soybeans. […] Effect of Pyroxasulfone and Lactofen Treatments on Soybeans,” there were no phytotoxic effects 28 days following treatments.

[5] = system: weeds; settings: as a post emergence treatment, applied alone; previous studies; cited from earlier work
[6] = plot 2, Pyroxasulfone 0.213 lb ai/a

CCOC(=O)C(C)OC(=O)c1cc(Oc2ccc(C(F)(F)F)cc2Cl)ccc1[N+](=O)[O-] (racemic) [Lactofen, ethyl O-[5-(2-chloro-α,α,α-trifluoro-p-tolyloxy)-2-nitrobenzoyl]-DL-lactate]
Palmer Amaranth (% Control) 7 DAT ([1]; plot 3, Lactofen 12.5 fl oz/a): 66.0% | Palmer Amaranth (% Control) 8/18 DAT ([1]; plot 3, Lactofen 12.5 fl oz/a): 97.7% | Palmer Amaranth (% Control) 14/24 DAT ([1]; plot 3, Lactofen 12.5 fl oz/a): 97.7% | Palmer Amaranth (% Control) 28/38 DAT ([1]; plot 3, Lactofen 12.5 fl oz/a): 99.0% | Effect on Palmer Amaranth 6 DAT ([2]; plot 8, Lactofen 8 fl oz/a): 86.7 | Effect on Palmer Amaranth 14 DAT ([2]; plot 8, Lactofen 8 fl oz/a): 65.0 | Effect on Palmer Amaranth 28 DAT ([2]; plot 8, Lactofen 8 fl oz/a): 46.7 | Effect on Palmer Amaranth 6 DAT ([2]; plot 9, Lactofen 10.0 fl oz/a): 84.7 | Effect on Palmer Amaranth 14 DAT ([2]; plot 9, Lactofen 10.0 fl oz/a): 68.3 | Effect on Palmer Amaranth 28 DAT ([2]; plot 9, Lactofen 10.0 fl oz/a): 46.7 | Effect on Palmer Amaranth 6 DAT ([2]; plot 10, Lactofen 12.5 fl oz/a): 85.0 | Effect on Palmer Amaranth 14 DAT ([2]; plot 10, Lactofen 12.5 fl oz/a): 71.7 | Effect on Palmer Amaranth 28 DAT ([2]; plot 10, Lactofen 12.5 fl oz/a): 43.3 | Effect on Ivyleaf Morning Glory 6 DAT ([3]; plot 8, Lactofen 8 fl oz/a): 61.7 | Effect on Ivyleaf Morning Glory 14 DAT ([3]; plot 8, Lactofen 8 fl oz/a): 48.3 | Effect on Ivyleaf Morning Glory 28 DAT ([3]; plot 8, Lactofen 8 fl oz/a): 20.0 | Effect on Ivyleaf Morning Glory 6 DAT ([3]; plot 9, Lactofen 10.0 fl oz/a): 71.7 | Effect on Ivyleaf Morning Glory 14 DAT ([3]; plot 9, Lactofen 10.0 fl oz/a): 58.3 | Effect on Ivyleaf Morning Glory 28 DAT ([3]; plot 9, Lactofen 10.0 fl oz/a): 20.0 | Effect on Ivyleaf Morning Glory 6 DAT ([3]; plot 10, Lactofen 12.5 fl oz/a): 68.3 | Effect on Ivyleaf Morning Glory 14 DAT ([3]; plot 10, Lactofen 12.5 fl oz/a): 56.7 | Effect on Ivyleaf Morning Glory 28 DAT ([3]; plot 10, Lactofen 12.5 fl oz/a): 23.3 | Effect on Soybeans (phytotoxicity) 28 DAT [4]: 0.0

Cn1nc(C(F)(F)F)c(CS(=O)(=O)C2=NOC(C)(C)C2)c1OC(F)F [Pyroxasulfone, 5-(difluoromethoxy)-1-methyl-3-(trifluoromethyl)pyrazol-4-ylmethyl 4,5-dihydro-5,5-dimethyl-1,2-oxazol-3-yl sulfone]
Palmer Amaranth (% Control) 7 DAT [1, 6]: 66.9% | Palmer Amaranth (% Control) 8/18 DAT [1, 6]: 85.0% | Palmer Amaranth (% Control) 14/24 DAT [1, 6]: 45.0% | Palmer Amaranth (% Control) 28/38 DAT [1, 6]: 61.7% | post emergence activity [5]: poor activity
